Measured values as given in ChEMBL document CHEMBL5649166, “RIP3 induces apoptosis independent of pronecrotic kinase activity” (Mol Cell, 2014).
Calls of active or inactive are those of the source. No cut-off for these calls is given here.

Legend:
[1] = target: Casein kinase II subunit alpha (Homo sapiens) (UniProt P68400); experiment: Inhibition of human CK2a using RRRDDDSDDD as substrate at 1 uM in presence of 32P-ATP by Hotspot assay relative to control; values are per cent of control
[2] = target: Tyrosine-protein kinase Fer (Homo sapiens) (UniProt P16591); experiment: Inhibition of human FER using poly[Glu:Tyr] (4:1) as substrate at 1 uM in presence of 32P-ATP by Hotspot assay relative to control; values are per cent of control
Sequence of Tyrosine-protein kinase Fer (Homo sapiens) (P16591 whole entry, looked up): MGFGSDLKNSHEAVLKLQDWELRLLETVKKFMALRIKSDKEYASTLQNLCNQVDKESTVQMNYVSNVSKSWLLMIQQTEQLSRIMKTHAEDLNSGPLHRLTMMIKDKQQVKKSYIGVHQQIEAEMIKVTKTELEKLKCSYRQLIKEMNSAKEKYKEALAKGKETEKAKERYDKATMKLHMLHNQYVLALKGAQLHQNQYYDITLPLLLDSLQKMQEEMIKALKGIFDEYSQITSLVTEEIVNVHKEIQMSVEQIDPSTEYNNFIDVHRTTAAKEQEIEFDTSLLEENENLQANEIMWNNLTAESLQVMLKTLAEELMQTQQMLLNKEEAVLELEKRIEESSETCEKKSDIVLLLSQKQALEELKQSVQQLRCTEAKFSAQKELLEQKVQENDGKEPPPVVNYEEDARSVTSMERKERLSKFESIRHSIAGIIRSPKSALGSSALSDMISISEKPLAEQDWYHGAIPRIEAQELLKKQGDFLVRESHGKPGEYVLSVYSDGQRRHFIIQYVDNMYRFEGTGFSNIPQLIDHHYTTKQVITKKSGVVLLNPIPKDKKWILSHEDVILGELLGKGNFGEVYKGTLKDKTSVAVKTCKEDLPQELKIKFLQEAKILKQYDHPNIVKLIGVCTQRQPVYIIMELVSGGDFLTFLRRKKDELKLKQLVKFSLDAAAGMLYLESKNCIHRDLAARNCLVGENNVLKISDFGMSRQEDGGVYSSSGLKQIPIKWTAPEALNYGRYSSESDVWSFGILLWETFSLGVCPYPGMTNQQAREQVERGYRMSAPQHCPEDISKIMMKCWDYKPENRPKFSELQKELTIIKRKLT

[3] = target: MAP/microtubule affinity-regulating kinase 3 (Homo sapiens) (UniProt P27448); experiment: Inhibition of human MARK3 using KKKVSRSGLYRSPSMPENLNRPR as substrate at 1 uM in presence of 32P-ATP by Hotspot assay relative to control; values are per cent of control
[4] = target: ALK tyrosine kinase receptor (Homo sapiens) (UniProt Q9UM73); experiment: Inhibition of human ALK using poly[Glu:Tyr] (4:1) as substrate at 1 uM in presence of 32P-ATP by Hotspot assay relative to control; values are per cent of control
Sequence of ALK tyrosine kinase receptor (Homo sapiens) (Q9UM73 19-1620 limits assumed): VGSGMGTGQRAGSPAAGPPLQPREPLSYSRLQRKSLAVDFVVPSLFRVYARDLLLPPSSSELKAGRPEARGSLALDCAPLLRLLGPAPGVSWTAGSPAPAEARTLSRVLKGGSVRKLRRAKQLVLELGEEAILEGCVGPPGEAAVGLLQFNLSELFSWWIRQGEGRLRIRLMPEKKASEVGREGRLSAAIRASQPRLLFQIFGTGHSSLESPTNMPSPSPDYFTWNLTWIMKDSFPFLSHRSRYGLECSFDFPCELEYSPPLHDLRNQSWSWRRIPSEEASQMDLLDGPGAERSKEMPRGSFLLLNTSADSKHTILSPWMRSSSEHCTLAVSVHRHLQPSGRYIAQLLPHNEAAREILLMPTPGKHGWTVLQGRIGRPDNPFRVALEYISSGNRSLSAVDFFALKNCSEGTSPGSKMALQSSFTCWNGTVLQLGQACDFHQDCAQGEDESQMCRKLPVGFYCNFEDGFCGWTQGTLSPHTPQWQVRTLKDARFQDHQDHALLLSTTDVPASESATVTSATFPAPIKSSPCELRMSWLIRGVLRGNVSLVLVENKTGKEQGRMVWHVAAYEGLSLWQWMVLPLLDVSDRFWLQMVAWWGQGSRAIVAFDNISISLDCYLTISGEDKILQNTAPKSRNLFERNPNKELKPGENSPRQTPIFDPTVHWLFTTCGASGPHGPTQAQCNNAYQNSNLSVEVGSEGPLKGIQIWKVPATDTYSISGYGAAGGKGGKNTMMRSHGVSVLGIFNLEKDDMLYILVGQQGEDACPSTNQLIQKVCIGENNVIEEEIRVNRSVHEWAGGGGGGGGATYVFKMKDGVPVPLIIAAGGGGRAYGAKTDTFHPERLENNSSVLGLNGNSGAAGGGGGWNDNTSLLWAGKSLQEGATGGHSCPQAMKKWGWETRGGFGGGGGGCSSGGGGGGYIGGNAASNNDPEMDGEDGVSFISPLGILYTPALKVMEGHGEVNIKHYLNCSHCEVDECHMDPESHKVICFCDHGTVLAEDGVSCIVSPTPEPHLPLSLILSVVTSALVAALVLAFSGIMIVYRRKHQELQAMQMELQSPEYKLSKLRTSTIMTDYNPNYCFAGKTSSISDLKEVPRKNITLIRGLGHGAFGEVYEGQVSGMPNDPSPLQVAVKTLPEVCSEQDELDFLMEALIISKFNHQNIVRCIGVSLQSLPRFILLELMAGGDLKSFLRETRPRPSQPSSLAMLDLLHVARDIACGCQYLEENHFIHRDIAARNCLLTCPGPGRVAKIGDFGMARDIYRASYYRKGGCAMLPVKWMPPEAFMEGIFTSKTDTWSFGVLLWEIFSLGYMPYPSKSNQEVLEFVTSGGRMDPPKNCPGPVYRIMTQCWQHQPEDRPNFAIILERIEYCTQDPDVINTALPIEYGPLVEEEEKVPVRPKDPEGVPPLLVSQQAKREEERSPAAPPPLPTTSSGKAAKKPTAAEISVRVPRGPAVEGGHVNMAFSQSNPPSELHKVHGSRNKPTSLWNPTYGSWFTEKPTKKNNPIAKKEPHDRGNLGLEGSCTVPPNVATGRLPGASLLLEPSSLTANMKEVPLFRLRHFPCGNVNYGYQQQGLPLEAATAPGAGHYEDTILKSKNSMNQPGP

[5] = target: Serine/threonine-protein kinase N2 (Homo sapiens) (UniProt Q16513); experiment: Inhibition of human PKN2/PRK2 using KKLNRTLSVA as substrate at 1 uM in presence of 32P-ATP by Hotspot assay relative to control; values are per cent of control
Sequence of Serine/threonine-protein kinase N2 (Homo sapiens) (Q16513 whole entry, looked up): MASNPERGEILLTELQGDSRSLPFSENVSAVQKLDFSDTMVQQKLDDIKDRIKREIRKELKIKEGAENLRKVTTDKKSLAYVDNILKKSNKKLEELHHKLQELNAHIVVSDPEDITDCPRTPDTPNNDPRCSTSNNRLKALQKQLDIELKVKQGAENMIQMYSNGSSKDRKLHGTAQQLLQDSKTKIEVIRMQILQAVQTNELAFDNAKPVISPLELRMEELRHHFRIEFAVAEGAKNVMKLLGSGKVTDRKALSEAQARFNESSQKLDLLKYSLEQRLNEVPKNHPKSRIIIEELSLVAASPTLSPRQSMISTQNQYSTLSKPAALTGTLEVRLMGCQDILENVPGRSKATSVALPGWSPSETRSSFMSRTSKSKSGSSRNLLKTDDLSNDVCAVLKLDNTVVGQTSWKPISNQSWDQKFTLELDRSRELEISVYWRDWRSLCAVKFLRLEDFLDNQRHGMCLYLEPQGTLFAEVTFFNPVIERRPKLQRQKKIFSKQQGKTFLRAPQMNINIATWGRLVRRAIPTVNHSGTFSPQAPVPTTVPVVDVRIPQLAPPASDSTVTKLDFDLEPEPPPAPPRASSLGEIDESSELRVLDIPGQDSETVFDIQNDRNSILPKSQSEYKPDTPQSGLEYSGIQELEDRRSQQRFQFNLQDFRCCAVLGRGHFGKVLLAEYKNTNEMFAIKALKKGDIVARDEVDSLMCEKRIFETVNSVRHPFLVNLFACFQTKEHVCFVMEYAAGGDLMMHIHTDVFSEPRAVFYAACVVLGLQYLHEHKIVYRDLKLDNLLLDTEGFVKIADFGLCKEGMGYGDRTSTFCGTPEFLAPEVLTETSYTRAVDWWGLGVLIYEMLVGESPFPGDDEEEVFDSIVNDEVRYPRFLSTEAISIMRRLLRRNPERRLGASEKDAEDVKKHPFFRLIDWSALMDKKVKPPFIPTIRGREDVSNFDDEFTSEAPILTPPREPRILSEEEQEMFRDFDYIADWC

[6] = target: Calcium/calmodulin-dependent protein kinase type 1D (Homo sapiens) (UniProt Q8IU85); experiment: Inhibition of human CAMK1d using KKALRRQETVDAL as substrate at 1 uM in presence of 32P-ATP by Hotspot assay relative to control; values are per cent of control
Sequence of Calcium/calmodulin-dependent protein kinase type 1D (Homo sapiens) (Q8IU85 whole entry, looked up): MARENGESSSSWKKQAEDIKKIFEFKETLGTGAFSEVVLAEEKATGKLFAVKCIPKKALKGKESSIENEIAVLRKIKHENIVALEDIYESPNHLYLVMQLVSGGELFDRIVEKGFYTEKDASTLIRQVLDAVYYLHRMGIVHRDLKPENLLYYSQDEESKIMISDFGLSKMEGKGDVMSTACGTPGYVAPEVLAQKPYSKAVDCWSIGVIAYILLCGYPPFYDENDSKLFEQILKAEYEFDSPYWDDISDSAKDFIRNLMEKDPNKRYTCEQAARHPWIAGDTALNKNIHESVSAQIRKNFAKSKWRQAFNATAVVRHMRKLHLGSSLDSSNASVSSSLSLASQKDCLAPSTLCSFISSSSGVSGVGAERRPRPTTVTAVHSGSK

[7] = target: Angiopoietin-1 receptor (Homo sapiens) (UniProt Q02763); experiment: Inhibition of human TIE2/TEK using poly[Glu:Tyr] (4:1) as substrate at 1 uM in presence of 32P-ATP by Hotspot assay relative to control; values are per cent of control
[8] = target: Mitogen-activated protein kinase 11 (Homo sapiens) (UniProt Q15759); experiment: Inhibition of human P38b/MAPK11 using myelin basic protein as substrate at 1 uM in presence of 32P-ATP by Hotspot assay relative to control; values are per cent of control
Sequence of Mitogen-activated protein kinase 11 (Homo sapiens) (Q15759 whole entry): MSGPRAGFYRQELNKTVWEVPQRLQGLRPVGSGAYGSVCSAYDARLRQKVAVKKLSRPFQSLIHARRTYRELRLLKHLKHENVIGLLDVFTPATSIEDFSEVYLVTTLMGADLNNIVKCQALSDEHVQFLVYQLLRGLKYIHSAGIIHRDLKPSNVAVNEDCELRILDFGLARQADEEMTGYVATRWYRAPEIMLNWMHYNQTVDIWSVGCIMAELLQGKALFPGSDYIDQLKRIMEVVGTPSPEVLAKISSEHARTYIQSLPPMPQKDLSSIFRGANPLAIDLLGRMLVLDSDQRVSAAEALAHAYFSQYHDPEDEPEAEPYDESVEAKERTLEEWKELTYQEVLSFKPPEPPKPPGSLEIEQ

[9] = target: Serine/threonine-protein kinase PAK 5 (Homo sapiens) (UniProt Q9P286); experiment: Residual activity of human PAK5 using RRRLSFAEPG as substrate at 1 uM in presence of 32P-ATP by Hotspot assay relative to control
[10] = target: Fibroblast growth factor receptor 2 (Homo sapiens) (UniProt P21802); experiment: Inhibition of human FGFR2 using poly[Glu:Tyr] (4:1) as substrate at 1 uM in presence of 32P-ATP by Hotspot assay relative to control; values are per cent of control
[11] = target: Protein kinase C alpha type (Homo sapiens) (UniProt P17252); experiment: Inhibition of human PKCa using ERMRPRKRQGSVRRRV as substrate at 1 uM in presence of 32P-ATP by Hotspot assay relative to control; values are per cent of control
[12] = target: T1, Serine/threonine-protein kinase TAO1 (Homo sapiens) (UniProt Q7L7X3); experiment: Inhibition of human TAOK1 using myelin basic protein as substrate at 1 uM in presence of 32P-ATP by Hotspot assay relative to control; values are per cent of control
T1 sequence (whole entry): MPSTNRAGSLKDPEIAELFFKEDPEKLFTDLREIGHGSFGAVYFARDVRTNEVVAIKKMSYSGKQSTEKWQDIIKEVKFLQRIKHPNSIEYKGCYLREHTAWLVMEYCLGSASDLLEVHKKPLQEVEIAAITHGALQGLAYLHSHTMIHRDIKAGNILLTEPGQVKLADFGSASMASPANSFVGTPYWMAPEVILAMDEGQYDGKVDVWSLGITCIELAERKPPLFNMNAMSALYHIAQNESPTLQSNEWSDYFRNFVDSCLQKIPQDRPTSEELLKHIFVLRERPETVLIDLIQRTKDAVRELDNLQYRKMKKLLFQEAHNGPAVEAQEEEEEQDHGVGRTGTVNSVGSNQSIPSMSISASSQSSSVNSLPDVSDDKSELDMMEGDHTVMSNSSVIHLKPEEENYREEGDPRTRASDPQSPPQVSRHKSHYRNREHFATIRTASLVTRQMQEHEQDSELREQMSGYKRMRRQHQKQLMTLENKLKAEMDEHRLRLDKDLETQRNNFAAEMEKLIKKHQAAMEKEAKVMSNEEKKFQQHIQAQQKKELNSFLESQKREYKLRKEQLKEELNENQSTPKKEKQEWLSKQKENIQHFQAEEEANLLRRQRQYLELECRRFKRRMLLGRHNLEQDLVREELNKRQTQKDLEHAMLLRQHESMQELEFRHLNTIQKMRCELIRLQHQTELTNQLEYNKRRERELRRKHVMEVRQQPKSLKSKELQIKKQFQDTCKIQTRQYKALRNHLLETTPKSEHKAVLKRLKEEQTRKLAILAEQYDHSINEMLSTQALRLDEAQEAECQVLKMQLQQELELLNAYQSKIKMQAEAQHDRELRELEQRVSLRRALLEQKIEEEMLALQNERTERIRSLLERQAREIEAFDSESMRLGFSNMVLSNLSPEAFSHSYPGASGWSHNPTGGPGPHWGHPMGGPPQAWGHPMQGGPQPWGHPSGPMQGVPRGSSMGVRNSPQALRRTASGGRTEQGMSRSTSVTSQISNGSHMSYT

[13] = target: Mitogen-activated protein kinase 3 (Homo sapiens) (UniProt P27361); experiment: Inhibition of human ERK1 using myelin basic protein as substrate at 1 uM in presence of 32P-ATP by Hotspot assay relative to control; values are per cent of control
Sequence of Mitogen-activated protein kinase 3 (Homo sapiens) (P27361 whole entry): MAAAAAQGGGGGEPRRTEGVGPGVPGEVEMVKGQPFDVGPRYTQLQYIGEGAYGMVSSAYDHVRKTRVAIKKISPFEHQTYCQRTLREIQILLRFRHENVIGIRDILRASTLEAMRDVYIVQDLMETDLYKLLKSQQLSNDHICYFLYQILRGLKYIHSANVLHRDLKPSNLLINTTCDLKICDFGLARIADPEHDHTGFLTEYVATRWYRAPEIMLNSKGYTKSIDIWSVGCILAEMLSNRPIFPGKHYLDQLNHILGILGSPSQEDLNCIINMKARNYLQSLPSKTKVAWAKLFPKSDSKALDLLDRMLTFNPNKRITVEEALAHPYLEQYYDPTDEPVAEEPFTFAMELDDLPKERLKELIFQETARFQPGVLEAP

Homo sapiens = species: Homo sapiens; experiment: Inhibition of human PKA using LCGRTGRRNSI as substrate at 1 uM in presence of 32P-ATP by Hotspot assay relative to control; values are per cent of control
BMDM = experiment: Inhibition of TNF-alpha induced necroptosis in mouse BMDM cells assessed as increase in cell viability at 0.04 to 1 uM incubated for 18 hrs in presence of zVAD and BV6 by Cell Titer-Glo luminescent cell viability assay; format: functional, cell-based; details: dose 0.04-1 µM

Sequence of Casein kinase II subunit alpha (Homo sapiens) (P68400 whole entry, looked up): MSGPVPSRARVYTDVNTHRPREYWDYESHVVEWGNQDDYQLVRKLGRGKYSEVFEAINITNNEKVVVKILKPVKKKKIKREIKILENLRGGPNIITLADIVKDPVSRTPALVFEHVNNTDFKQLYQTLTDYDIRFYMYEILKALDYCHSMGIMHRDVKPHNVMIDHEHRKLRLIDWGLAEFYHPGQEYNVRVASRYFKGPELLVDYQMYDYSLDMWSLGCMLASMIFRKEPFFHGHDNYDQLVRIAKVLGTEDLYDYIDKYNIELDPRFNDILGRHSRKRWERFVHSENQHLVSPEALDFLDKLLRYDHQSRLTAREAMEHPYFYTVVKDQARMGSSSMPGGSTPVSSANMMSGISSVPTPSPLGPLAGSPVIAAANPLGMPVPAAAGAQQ

SMILES | residual activity [1] [%] | residual activity [2] [%] | residual activity [3] [%] | residual activity [4] [%] | residual activity [5] [%] | residual activity [6] [%] | residual activity [7] [%] | residual activity [8] [%] | residual activity [9] [%] | residual activity [10] [%] | residual activity [11] [%] | residual activity [12] [%] | residual activity [13] [%] | residual activity (Homo sapiens) [%] | inhibition (BMDM)
Cc1cc(-c2cnc(N)c3c(-c4ccc5scnc5c4)csc23)n(C)n1 | 54.7 | 87.9 | 98.2 | 96.6 | 89.8 | 97.8 | 94.2 | 37.8 | 99.5 | 61.7 | 80.8 | 92.6 | 93.3 | 94.9 | Active
CC(C)S(=O)(=O)c1ccc2nccc(Nc3ccc4scnc4c3)c2c1 | 92.4 | 98.4 | 106 | 90.8 | 108 | 99 | 98.7 | 102 | 105 | 73.7 | 80.2 | 93.8 | 89.9 | 97.7 | Active
CNC(=O)c1ccc2c(c1)ncn2-c1ccc(CC(=O)OC(C)(C)C)cc1 | 75.6 | 91.6 | 108 | 101 | 93.9 | 99.1 | 87.2 | 97.1 | 95.7 | 66.7 | 107 | 98.8 | 94.7 | 101 | inactive
